Measurements reported in ChEMBL document CHEMBL1857833, “Screening and optimization of specific chemical series against human African Trypanosomiasis (HAT)”.
In brackets after ≈: the same amount, converted by molar mass. Several values for one entry are separate records, joined by “and”; a condition that tells them apart may be missing. Equal values may be shown once.

The compounds below were run on Trypanosoma brucei (assay: DNDI: Inhibition of Human African Trypanosomiasis, SBRI 427, in vitro). Details: not given.
Type: functional, organism-based

Compound | IC50
CCOc1ccccc1-c1nc(CNC2CCCCCCCCCCC2)co1 | 1.37 µg/mL (≈ 3.56 µM)
CCOc1ccc(-c2nc(CNC(C)C3CCCCC3)co2)cc1 (stereo unspecified) | 1.96 µg/mL (≈ 5.97 µM)
CC(C)(C)c1ccc(-c2nc(CNCC3CC3)co2)cc1 | 1.69 µg/mL (≈ 5.94 µM)
CN(Cc1coc(-c2cccc3ccccc23)n1)C1CCCCC1 | 1.3 µg/mL (≈ 4.06 µM)
CCN(CCN(C)C)Cc1coc(-c2ccc(C(C)(C)C)cc2)n1 | 1.87 µg/mL (≈ 5.68 µM)
CCC1CCCCN1Cc1coc(-c2cccc3ccccc23)n1 (stereo unspecified) | 1.83 µg/mL (≈ 5.71 µM)
CC(NCc1coc(-c2cccc3ccccc23)n1)C1CCCCC1 (stereo unspecified) | 1.7 µg/mL (≈ 5.08 µM)
CC(C)(C)CNCc1coc(-c2ccc(C(C)(C)C)cc2)n1 | 2.86 µg/mL (≈ 9.52 µM)
CCOc1cccc(-c2nc(CNCCC3CCCN3C)co2)c1 (stereo unspecified) | 1.78 µg/mL and 4.05 µg/mL
C[C@@H]1C(NCc2coc(-c3ccccc3Br)n2)C[C@H]2C[C@@H]1C2(C)C (stereo partly specified) | 1.95 µg/mL (≈ 5.01 µM)

Same assay, conditions: Trypanosoma brucei, SBRI 427; read-out: IC50

Compound | IC50
CCOc1ccc(-c2nc(Cn3nc(N)cc3C)co2)cc1 | 2.11 µg/mL (≈ 7.07 µM)
CSc1ccc(Oc2ccc(/C(=N/O)NCc3ccccc3F)cn2)cc1 | 1.6 µg/mL (≈ 4.17 µM)
O/N=C(\Nc1ccccc1)c1cccnc1OCc1ccccc1 | 1.26 µg/mL (≈ 3.95 µM)
CCOc1ccccc1-c1nc(CNC2CCCCCCCCCCC2)co1 | 1.51 µg/mL (≈ 3.93 µM)
COc1ccc(Oc2ncccc2/C(=N/O)NC2CCc3ccccc32)cc1 (stereo unspecified) | 1.51 µg/mL (≈ 4.02 µM)
CC1CCC(N/C(=N\O)c2ccc(Oc3ccc(Cl)cc3)nc2)CC1 (stereo unspecified) | 1.42 µg/mL (≈ 3.95 µM)
CC(C)COc1ncccc1/C(=N/O)NC1CCC(C)CC1 (stereo unspecified) | 2.25 µg/mL (≈ 7.37 µM)
COc1ccc(Oc2ncccc2/C(=N/O)NCc2ccccc2C)cc1 | 2.36 µg/mL (≈ 6.49 µM)
CCC(CC)N/C(=N\O)c1ccc(C)nc1Oc1cccc(F)c1 | 1.56 µg/mL (≈ 4.71 µM)
COc1ccc(-c2nc(CNC3CCN(Cc4ccccc4)CC3)co2)cc1 | 2.92 µg/mL (≈ 7.74 µM)
CC(C)COc1ncccc1/C(=N/O)NC1CCCCC1 | 2.18 µg/mL (≈ 7.48 µM)
CCOc1ccc(-c2nc(CNC(C)C3CCCCC3)co2)cc1 (stereo unspecified) | 1.44 µg/mL (≈ 4.38 µM)
COc1cccc(Oc2ccc(/C(=N/O)NC3CCCCC3)cn2)c1 | 1.23 µg/mL (≈ 3.6 µM)
COc1ccc(Oc2ncccc2/C(=N/O)NCc2ccccc2OC)cc1 | 2.37 µg/mL (≈ 6.25 µM)
Cc1ccc(/C(=N/O)N2CCCc3ccccc32)c(Oc2cccc(F)c2)n1 | 2.54 µg/mL (≈ 6.73 µM)
O/N=C(/c1ccc(Oc2ccc(Cl)cc2)nc1)N1CCC2CCCCC2C1 (stereo unspecified) | 1.24 µg/mL (≈ 3.21 µM)
CCOc1ccccc1CN/C(=N\O)c1cccnc1Oc1ccc(OC)cc1 | 1.44 µg/mL (≈ 3.66 µM)
Cc1cccc(Oc2nc(C)ccc2/C(=N/O)NCC(C)C)c1 | 1.67 µg/mL (≈ 5.33 µM)
Cc1ccc(/C(=N/O)NCc2ccccc2F)c(Oc2cc(Cl)ccc2Cl)n1 | > 5 µg/mL
CCOc1ccccc1CN/C(=N\O)c1ccc(C)nc1Oc1ccc(C)cc1C | 2.99 µg/mL (≈ 7.37 µM)
O/N=C(\NCc1c(F)cccc1F)c1cccnc1Oc1ccccc1 | 1.58 µg/mL (≈ 4.45 µM)
CC(C)(C)c1ccc(-c2nc(CNCC3CC3)co2)cc1 | 1.22 µg/mL (≈ 4.29 µM)
C[C@@H]1C(NCc2coc(-c3cccc4ccccc34)n2)C[C@H]2C[C@@H]1C2(C)C (stereo partly specified) | 0.94 µg/mL (≈ 2.61 µM)
COc1ccccc1CN/C(=N\O)c1ccc(C)nc1Oc1cc(Cl)ccc1Cl | 3.98 µg/mL (≈ 9.21 µM)

Compound | IC50
CC(C)c1cccc(Oc2ccc(/C(=N/O)NCc3ccncc3)cn2)c1 | 2.64 µg/mL (≈ 7.28 µM)
Cc1ccc(/C(=N/O)NC2CC(C)CC(C)(C)C2)c(OCC(C)C)n1 (stereo unspecified) | 1.77 µg/mL (≈ 5.09 µM)
Cc1ccc(/C(=N/O)NC2CCCC2)c(Oc2cc(Cl)ccc2Cl)n1 | 0.4 µg/mL (≈ 1.05 µM)
CC(C)COc1ncccc1/C(=N/O)NC1CCC1 | 1.41 µg/mL (≈ 5.35 µM)
CC(C)c1cccc(Oc2ccc(/C(=N/O)N(C)Cc3cccnc3)cn2)c1 | 2.5 µg/mL (≈ 6.64 µM)
CSc1ccc(Oc2ccc(/C(=N/O)NC3CCC(C)CC3)cn2)cc1 (stereo unspecified) | 1.35 µg/mL (≈ 3.63 µM)
O/N=C(\NCc1cccs1)c1ccc(Oc2cccc(F)c2)nc1 | 1.93 µg/mL (≈ 5.62 µM)
Cc1ccc(CN/C(=N\O)c2cccnc2Oc2cc(Cl)ccc2Cl)o1 | 1.67 µg/mL (≈ 4.26 µM)
CCC(CC)N/C(=N\O)c1ccc(Oc2cc(Cl)ccc2Cl)nc1 | 1.35 µg/mL (≈ 3.67 µM)
Cc1ccc([C@@H](C)NCc2coc(-c3cccc4ccccc34)n2)cc1 | 1.86 µg/mL (≈ 5.43 µM)
CCC(CC)N/C(=N\O)c1ccc(C)nc1Oc1ccc(F)c(Cl)c1 | > 5 µg/mL
CC1(C)[C@H]2CC[C@@H](CNCc3coc(-c4ccc(F)cc4)n3)[C@@H]1C2 | > 5 µg/mL
CN(Cc1coc(-c2cccc3ccccc23)n1)C1CCCCC1 | 2.01 µg/mL (≈ 6.27 µM)
Cc1ccc(Oc2ncccc2/C(=N/O)NCc2ccccc2)c2c1CCC2 | 1.28 µg/mL (≈ 3.43 µM)
O/N=C(\NCC1CCCCC1)c1ccc(Oc2ccc(Cl)cc2)nc1 | 1.6 µg/mL (≈ 4.45 µM)
CC(C)N/C(=N\O)c1cccnc1OCC(C)(C)C | 0.9 µg/mL (≈ 3.39 µM)
CCC(CC)N/C(=N\O)c1cccnc1OCc1ccccc1 | 0.51 µg/mL (≈ 1.63 µM)
CCN(CCN(C)C)Cc1coc(-c2ccc(C(C)(C)C)cc2)n1 | 3.09 µg/mL (≈ 9.38 µM)
COc1ccc(-c2nc(CNCCCN3CCCCC3C)co2)cc1 (stereo unspecified) | > 5 µg/mL
Cc1ccc(-c2nc(Cn3nc(N)cc3C)co2)cc1 | > 5 µg/mL
Cc1cccc(Oc2nc(C)ccc2/C(=N/O)NCC(C)(C)C)c1 | 0.32 µg/mL (≈ 0.977 µM)
COc1cccc(Oc2ccc(/C(=N/O)NCC3CCCCC3)cn2)c1 | 2.15 µg/mL (≈ 6.05 µM)
Cc1ccc(Oc2cc(/C(=N/O)NCC(C)(C)C)ccn2)c(C)c1 | 0.36 µg/mL (≈ 1.1 µM)
CCOc1ccccc1CN/C(=N\O)c1cccnc1Oc1ccc(Cl)cc1 | 2.13 µg/mL (≈ 5.35 µM)

Compound | IC50
C=CCc1ccc(Oc2ccc(/C(=N/O)NCc3ccncc3)cn2)c(OC)c1 | 2.1 µg/mL (≈ 5.38 µM)
Cc1ccc(-c2nc(CN(Cc3ccccn3)Cc3ccccn3)co2)cc1 | > 5 µg/mL
Cc1ccccc1CN/C(=N\O)c1cccnc1Oc1cccc(C)c1C | 3.57 µg/mL (≈ 9.88 µM)
O/N=C(\NCC1CC1)c1cccnc1OCc1ccccc1 | 0.61 µg/mL (≈ 2.05 µM)
O/N=C(\NCC1CCCCC1)c1ccc(Oc2cc(Cl)ccc2Cl)nc1 | 2.81 µg/mL (≈ 7.13 µM)
CC1CCc2ccccc2N1/C(=N\O)c1cccnc1OCC(C)(C)C (stereo unspecified) | 0.66 µg/mL (≈ 1.87 µM)
Cc1cc(C)cc(CN/C(=N\O)c2cccnc2OCC(C)C)c1 | 1.94 µg/mL (≈ 5.92 µM)
CCC(CC)N/C(=N\O)c1ccc(Oc2ccc(Cl)cc2)nc1 | 1.63 µg/mL (≈ 4.88 µM)
CCC1CCCCN1Cc1coc(-c2cccc3ccccc23)n1 (stereo unspecified) | 2.13 µg/mL (≈ 6.65 µM)
Clc1ccc(-c2nc(CNCCCn3ccnc3)co2)c(Cl)c1 | 2.02 µg/mL (≈ 5.75 µM)
COc1cc(C)ccc1Oc1nc(C)ccc1/C(=N/O)NCc1ccccc1 | 0.77 µg/mL (≈ 2.04 µM)
Cc1ccc(/C(=N/O)NCC(C)C)c(Oc2cccc(F)c2)n1 | 1.37 µg/mL (≈ 4.32 µM)
CC(NCc1coc(-c2cccc3ccccc23)n1)C1CCCCC1 (stereo unspecified) | 1.34 µg/mL (≈ 4.01 µM)
Cc1ccc(/C(=N/O)N(C)c2ccccc2)c(Oc2cccc(F)c2)n1 | 1.34 µg/mL (≈ 3.81 µM)
CCC(CC)N/C(=N\O)c1ccc(C)nc1Oc1cc(Cl)ccc1Cl | 3.35 µg/mL (≈ 8.76 µM)
CCN(CC)CCCC(C)NCc1coc(-c2ccccc2Cl)n1 (stereo unspecified) | > 5 µg/mL
c1ccc2c(-c3nc(CNCCCN4CCCC4)co3)cccc2c1 | 0.62 µg/mL (≈ 1.85 µM)
Cc1ccc(/C(=N/O)NCC(C)(C)C)c(OCc2cccc(F)c2)n1 | 2.11 µg/mL (≈ 6.11 µM)
COc1ccc(Oc2ncccc2/C(=N/O)NCC2CCCCC2)cc1 | 1.96 µg/mL (≈ 5.51 µM)
Cc1ccc(/C(=N/O)NCc2cc(F)cc(F)c2)c(Oc2cc(Cl)ccc2Cl)n1 | 2.52 µg/mL (≈ 5.75 µM)
COc1cccc(Oc2ccc(/C(=N/O)NC3CCC(C)CC3)cn2)c1 (stereo unspecified) | 1.97 µg/mL (≈ 5.54 µM)
CC1CCCCN1CCCNCc1coc(-c2cccc3ccccc23)n1 (stereo unspecified) | 2.07 µg/mL (≈ 5.69 µM)
C[C@H]1C(NCc2coc(-c3cccc4ccccc34)n2)C[C@@H]2C[C@H]1C2(C)C (stereo partly specified) | 0.9 µg/mL (≈ 2.5 µM)
O/N=C(\NC1CCC1)c1cccnc1Oc1ccccc1OCc1ccccc1 | 1.39 µg/mL (≈ 3.57 µM)

Compound | IC50
CCc1ccc(Oc2ncccc2/C(=N/O)NC(C)COC)cc1 (stereo unspecified) | 2.17 µg/mL (≈ 6.59 µM)
NCCc1cn(Cc2coc(-c3ccc(Cl)cc3Cl)n2)cn1 | 4.34 µg/mL (≈ 12.9 µM)
COc1ccc(Oc2nc(C)ccc2/C(=N/O)NC2CCCC2)cc1 | 1.33 µg/mL (≈ 3.9 µM)
COc1cccc(-c2nc(CNC34C[C@H]5C[C@@H](C3)C[C@@H](C4)C5)co2)c1 | > 5 µg/mL
Cc1ccc(/C(=N/O)NCC2CCCO2)c(Oc2cc(Cl)ccc2Cl)n1 (stereo unspecified) | > 5 µg/mL
CC(C)(C)CNCc1coc(-c2ccc(C(C)(C)C)cc2)n1 | 1.62 µg/mL (≈ 5.39 µM)
CSCCN/C(=N\O)c1cccnc1Oc1c(F)cccc1F | 4.81 µg/mL (≈ 14.2 µM)
COc1cccc(-c2nc(Cn3ccnc3C=O)co2)c1 | > 5 µg/mL
O/N=C(\NC1CCCCC1)c1ccc(Oc2cc(Cl)ccc2Cl)nc1 | 1.3 µg/mL (≈ 3.42 µM)
O/N=C(\NC1CCc2ccccc21)c1cccnc1Oc1c(F)cccc1F (stereo unspecified) | 1.7 µg/mL (≈ 4.46 µM)
CC1CCC(C)N1/C(=N\O)c1cccnc1OCC(C)(C)C (stereo unspecified) | 1.25 µg/mL (≈ 4.09 µM)
COc1ccc(Oc2ncccc2/C(=N/O)NCc2cc(C)cc(C)c2)cc1 | 2.32 µg/mL (≈ 6.15 µM)
CCOc1ccccc1CN/C(=N\O)c1cccnc1Oc1cc(Cl)ccc1Cl | 0.66 µg/mL (≈ 1.53 µM)
O/N=C(/c1cccnc1Oc1cccc(C(F)(F)F)c1)N1CCN(C2CCCC2)CC1 | 2.33 µg/mL (≈ 5.36 µM)
Cc1ccc(/C(=N/O)NCC(C)(C)C)c(Oc2cccc(F)c2)n1 | 0.45 µg/mL (≈ 1.36 µM)
COc1ccc(Oc2ncccc2/C(=N/O)NCc2ccccc2)cc1 | 3.01 µg/mL (≈ 8.62 µM)
COc1ccc(-c2nc(CNC[C@@H]3CC[C@H]4C[C@@H]3C4(C)C)co2)cc1 | 1.31 µg/mL (≈ 3.85 µM)
C[C@@H]1C(NCc2coc(-c3ccccc3Br)n2)C[C@H]2C[C@@H]1C2(C)C (stereo partly specified) | 1.22 µg/mL (≈ 3.13 µM)
Cc1cccc(Oc2nc(C)ccc2/C(=N/O)NC2CCCCC2)c1 | 1.24 µg/mL (≈ 3.65 µM)
Cc1ccc(-c2nc(CNC34C[C@H]5C[C@@H](C3)C[C@@H](C4)C5)co2)cc1 | 3.86 µg/mL (≈ 12 µM)
O/N=C(\NCc1cccs1)c1cccnc1Oc1ccc2oc3ccccc3c2c1 | 2.45 µg/mL (≈ 5.9 µM)
CCN(CC)CCCNCc1coc(-c2cccc(C)c2)n1 | 3.36 µg/mL (≈ 11.1 µM)
COCCN/C(=N\O)c1cccnc1Oc1ccc(C)c2c1CCC2 | 1.77 µg/mL (≈ 5.18 µM)
O/N=C(\NC1CCCC1)c1ccc(Oc2ccc(Cl)cc2)nc1 | 1.32 µg/mL (≈ 3.98 µM)
